Reference: patent publication US10487092B2, “Pyrazolopyridinamines as MKNK1 and MKNK2 inhibitors” (BAYER PHARMA AKTIENGESELLSCHAFT, priority 2014, dated 2019)

Molecular target: human full-length MKNK1 (Homo sapiens (Human), UniProt Q9BUB5, T344D)
Test: MKNK1 kinase high ATP assay (TR-FRET)
Type: biochemical
Conditions: high ATP (2 mM), 15 min preincubation with enzyme; read-out: MKNK1 IC50
Description: MKNK1 Kinase High ATP Assay
MKNK1-inhibitory activity at high ATP of compounds of the present invention after their preincubation with MKNK1 was quantified employing the TR-FRET-based MKNK1 high ATP assay as described in the following paragraphs.
A recombinant fusion protein of Glutathione-S-Transferase (GST, N-terminally) and human full-length MKNK1 (amino acids 1-424 and T344D of accession number BAA 19885.1), expressed in insect cells using baculovirus expression system and purified via glutathione sepharose affinity chromatography, was purchased from Carna Biosciences (product no 02-145) and used as enzyme. As substrate for the kinase reaction the biotinylated peptide biotin-Ahx-IKKRKLTRRKSLKG (SEQ ID NO: 1, C-terminus in amide form) was used, which can be purchased e.g. from the company Biosyntan (Berlin-Buch, Germany).
For the assay 50 nL of a 100 fold concentrated solution of the test compound in DMSO was pipetted into a black low volume 384 well microtiter plate (Greiner Bio-One, Frickenhausen, Germany), 2 μL of a solution of MKNK1 in aqueous assay buffer [50 mM HEPES pH 7.5, 5 mM MgCl2, 1.0 mM dithiothreitol, 0.005% (v/v) Nonidet-P40 (Sigma)] was added and the mixture was incubated for 15 min at 22° C. to allow pre-binding of the test compounds to the enzyme before the start of the kinase reaction. Then the kinase reaction was started by the addition of 3 μL of a solution of adenosine-tri-phosphate (ATP, 3.3 mM=>final conc. in the 5 μL assay volume is 2 mM) and substrate (0.1 μM=>final conc. in the 5 μL assay volume is 0.06 μM) in assay buffer and the resulting mixture was incubated for a reaction time of 30 min at 22° C. The concentration of MKNK1 was adjusted depending of the activity of the enzyme lot and was chosen appropriate to have the assay in the linear range, typical concentrations were in the range of 0.003 μg/mL. The reaction was stopped by the addition of 5 μL of a solution of TR-FRET detection reagents (5 nM streptavidine-XL665 [Cisbio Bioassays, Codolet, France] and 1 nM anti-ribosomal protein S6 (pSer236)-antibody from Invitrogen [#44921G] and 1 nM LANCE EU-W1024 labeled ProteinG [Perkin-Elmer, product no. AD0071]) in an aqueous EDTA-solution (100 mM EDTA, 0.1% (w/v) bovine serum albumin in 50 mM HEPES pH 7.5).
The resulting mixture was incubated for 1 h at 22° C. to allow the formation of complex between the phosphorylated biotinylated peptide and the detection reagents. Subsequently the amount of phosphorylated substrate was evaluated by measurement of the resonance energy transfer from the Eu-chelate to the streptavidine-XL. Therefore, the fluorescence emissions at 620 nm and 665 nm after excitation at 350 nm were measured in a TR-FRET reader, e.g. a Rubystar (BMG Labtechnologies, Offenburg, Germany) or a Viewlux (Perkin-Elmer). The ratio of the emissions at 665 nm and at […] was taken as the measure for the amount of phosphorylated substrate. The data were normalised (enzyme reaction without inhibitor=0% inhibition, all other assay components but no enzyme=100% inhibition).

Sequence of human full-length MKNK1 (Q9BUB5 other isoform, or with tags, fused parts or gaps T344D): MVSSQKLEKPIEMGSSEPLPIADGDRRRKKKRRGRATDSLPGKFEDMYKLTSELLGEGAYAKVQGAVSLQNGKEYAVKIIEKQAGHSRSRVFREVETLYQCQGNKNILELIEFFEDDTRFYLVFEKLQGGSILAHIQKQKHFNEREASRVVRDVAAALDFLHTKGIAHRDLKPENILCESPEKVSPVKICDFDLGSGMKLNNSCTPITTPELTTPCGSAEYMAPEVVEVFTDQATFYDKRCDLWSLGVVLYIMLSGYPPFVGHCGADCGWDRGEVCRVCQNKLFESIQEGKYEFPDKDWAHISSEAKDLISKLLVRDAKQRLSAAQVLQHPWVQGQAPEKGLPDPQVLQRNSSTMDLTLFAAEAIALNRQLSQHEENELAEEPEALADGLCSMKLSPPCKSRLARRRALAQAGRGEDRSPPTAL

SMILES | IC50 [nM]
CN(C)C(=O)C1CCc2c(sc3ncnc(Nc4ccn5nccc5c4)c23)C1 (racemic) [Example 1, (RS) N,N-Dimethyl-4-(pyrazolo[1,5-a]pyridin-5-ylamino)-5,6,7,8-tetrahydro[1]benzothieno[2,3-d]pyrimidine-7-carboxamide] | 64
O=C(O)[C@H]1CCc2c(sc3ncnc(Nc4ccn5nccc5c4)c23)C1 [Example 2, (7S)-4-(Pyrazolo[1,5-a]pyridin-5-ylamino)-5,6,7,8-tetrahydro[1]benzothieno[2,3-d]pyrimidine-7-carboxylic acid] | 707
C[C@@H]1COCCN1C(=O)[C@H]1CCc2c(sc3ncnc(Nc4ccn5nccc5c4)c23)C1 [Example 3, [(3R)-3-Methylmorpholin-4-yl][(7S)-4-(pyrazolo[1,5-a]pyridin-5-ylamino)-5,6,7,8-tetrahydro[1]benzothieno[2,3-d]pyrimidin-7-yl]methanone] | 80
CN(C)CCN(C)C(=O)[C@H]1CCc2c(sc3ncnc(Nc4ccn5nccc5c4)c23)C1 [Example 4, (7S)—N-[2-(Dimethylamino)ethyl]-N-methyl-4-(pyrazolo[1,5-a]pyridin-5-ylamino)-5,6,7,8-tetrahydro[1]benzothieno[2,3-d]pyrimidine-7-carboxamide] | 21
C[C@@H]1CN(C(=O)[C@H]2CCc3c(sc4ncnc(Nc5ccn6nccc6c5)c34)C2)C[C@H](C)O1 [Example 5, [(2R,6S)-2,6-Dimethylmorpholin-4-yl][(7S)-4-(pyrazolo[1,5-a]pyridin-5-ylamino)-5,6,7,8-tetrahydro[1]benzothieno[2,3-d]pyrimidin-7-yl]methanone] | 21
CN(C)[C@@H]1CCN(C(=O)[C@H]2CCc3c(sc4ncnc(Nc5ccn6nccc6c5)c34)C2)C1 [Example 6, [(3R)-3-(Dimethylamino)pyrrolidin-1-yl][(7S)-4-(pyrazolo[1,5-a]pyridin-5-ylamino)-5,6,7,8-tetrahydro[1]benzothieno[2,3-d]pyrimidin-7-yl]methanone] | 12
C[C@H]1COCCN1C(=O)[C@H]1CCc2c(sc3ncnc(Nc4ccn5nccc5c4)c23)C1 [Example 7, [(3S)-3-Methylmorpholin-4-yl][(7S)-4-(pyrazolo[1,5-a]pyridin-5-ylamino)-5,6,7,8-tetrahydro[1]benzothieno[2,3-d]pyrimidin-7-yl]methanone] | 65
COCCN(C)C(=O)[C@H]1CCc2c(sc3ncnc(Nc4ccn5nccc5c4)c23)C1 [Example 8, (7S)—N-(2-Methoxyethyl)-N-methyl-4-(pyrazolo[1,5-a]pyridin-5-ylamino)-5,6,7,8-tetrahydro[1]benzothieno[2,3-d]pyrimidine-7-carboxamide] | 42
C[C@H]1CN(C(=O)[C@H]2CCc3c(sc4ncnc(Nc5ccn6nccc6c5)c34)C2)C[C@H](C)O1 [Example 9, [(2S,6S)-2,6-Dimethylmorpholin-4-yl][(7S)-4-(pyrazolo[1,5-a]pyridin-5-ylamino)-5,6,7,8-tetrahydro[1]benzothieno[2,3-d]pyrimidin-7-yl]methanone] | 49
C[C@@H]1CN(C(=O)[C@H]2CCc3c(sc4ncnc(Nc5ccn6nccc6c5)c34)C2)C[C@@H](C)O1 [Example 10, [(2R,6R)-2,6-Dimethylmorpholin-4-yl][(7S)-4-(pyrazolo[1,5-a]pyridin-5-ylamino)-5,6,7,8-tetrahydro[1]benzothieno[2,3-d]pyrimidin-7-yl]methanone] | 33
O=C([C@H]1CCc2c(sc3ncnc(Nc4ccn5nccc5c4)c23)C1)N1CCOCC1 [Example 11, Morpholin-4-yl[(7S)-4-(pyrazolo[1,5-a]pyridin-5-ylamino)-5,6,7,8-tetrahydro[1]benzothieno[2,3-d]pyrimidin-7-yl]methanone] | 62
O=C([C@H]1CCc2c(sc3ncnc(Nc4ccn5nccc5c4)c23)C1)N1CC2CC2C1 (stereo partly drawn) [Example 12, 3-Azabicyclo[3.1.0]hex-3-yl[(7S)-4-(pyrazolo[1,5-a]pyridin-5-ylamino)-5,6,7,8-tetrahydro[1]benzothieno[2,3-d]pyrimidin-7-yl]methanone] | 24
C[C@@H]1COC[C@H](C)N1C(=O)[C@H]1CCc2c(sc3ncnc(Nc4ccn5nccc5c4)c23)C1 [Example 13, [(3R,5S)-3,5-Dimethylmorpholin-4-yl][(7S)-4-(pyrazolo[1,5-a]pyridin-5-ylamino)-5,6,7,8-tetrahydro[1]benzothieno[2,3-d]pyrimidin-7-yl]methanone] | 17
C[C@@H]1COC[C@@H](C)N1C(=O)[C@H]1CCc2c(sc3ncnc(Nc4ccn5nccc5c4)c23)C1 [Example 14, [(3R,5R)-3,5-Dimethylmorpholin-4-yl][(7S)-4-(pyrazolo[1,5-a]pyridin-5-ylamino)-5,6,7,8-tetrahydro[1]benzothieno[2,3-d]pyrimidin-7-yl]methanone] | 7
CC(C)N(C)C(=O)[C@H]1CCc2c(sc3ncnc(Nc4ccn5nccc5c4)c23)C1 [Example 16, (7S)—N-Isopropyl-N-methyl-4-(pyrazolo[1,5-a]pyridin-5-ylamino)-5,6,7,8-tetrahydro[1]benzothieno[2,3-d]pyrimidine-7-carboxamide] | 19
CN(C)C(=O)[C@H]1CCc2c(sc3ncnc(Nc4ccn5nccc5c4)c23)C1 [Example 17, (7S)—N,N-Dimethyl-4-(pyrazolo[1,5-a]pyridin-5-ylamino)-5,6,7,8-tetrahydro[1]benzothieno[2,3-d]pyrimidine-7-carboxamide] | 33
CN(CC(F)F)C(=O)[C@H]1CCc2c(sc3ncnc(Nc4ccn5nccc5c4)c23)C1 [Example 18, (7S)—N-(2,2-Difluoroethyl)-N-methyl-4-(pyrazolo[1,5-a]pyridin-5-ylamino)-5,6,7,8-tetrahydro[1]benzothieno[2,3-d]pyrimidine-7-carboxamide] | 19
CN(CC(C)(C)O)C(=O)[C@H]1CCc2c(sc3ncnc(Nc4ccn5nccc5c4)c23)C1 [Example 19, (7S)—N-(2-Hydroxy-2-methylpropyl)-N-methyl-4-(pyrazolo[1,5-a]pyridin-5-ylamino)-5,6,7,8-tetrahydro[1]benzothieno[2,3-d]pyrimidine-7-carboxamide] | 21
O=C([C@H]1CCc2c(sc3ncnc(Nc4ccn5nccc5c4)c23)C1)N1CCC1 [Example 20, Azetidin-1-yl[(7S)-4-(pyrazolo[1,5-a]pyridin-5-ylamino)-5,6,7,8-tetrahydro[1]benzothieno[2,3-d]pyrimidin-7-yl]methanone] | 26
CCN(CCO)C(=O)[C@H]1CCc2c(sc3ncnc(Nc4ccn5nccc5c4)c23)C1 [Example 21, (7S)—N-Ethyl-N-(2-hydroxyethyl)-4-(pyrazolo[1,5-a]pyridin-5-ylamino)-5,6,7,8-tetrahydro[1]benzothieno[2,3-d]pyrimidine-7-carboxamide] | 19
N#CC1CN(C(=O)[C@H]2CCc3c(sc4ncnc(Nc5ccn6nccc6c5)c34)C2)C1 [Example 22, 1-{[(7S)-4-(Pyrazolo[1,5-a]pyridin-5-ylamino)-5,6,7,8-tetrahydro[1]benzothieno[2,3-d]pyrimidin-7-yl]carbonyl}azetidine-3-carbonitrile] | 21
O=C([C@H]1CCc2c(sc3ncnc(Nc4ccn5nccc5c4)c23)C1)N1CC(F)(F)C1 [Example 23, (3,3-Difluoroazetidin-1-yl)[(7S)-4-(pyrazolo[1,5-a]pyridin-5-ylamino)-5,6,7,8-tetrahydro[1]benzothieno[2,3-d]pyrimidin-7-yl]methanone] | 23
O=C([C@H]1CCc2c(sc3ncnc(Nc4ccn5nccc5c4)c23)C1)N1CC(O)C1 [Example 24, (3-Hydroxyazetidin-1-yl)[(7S)-4-(pyrazolo[1,5-a]pyridin-5-ylamino)-5,6,7,8-tetrahydro[1]benzothieno[2,3-d]pyrimidin-7-yl]methanone] | 20
CN(CCNC(=O)OC(C)(C)C)C(=O)[C@H]1CCc2c(sc3ncnc(Nc4ccn5nccc5c4)c23)C1 [Example 25, tert-Butyl [2-(methyl{[(7S)-4-(pyrazolo[1,5-a]pyridin-5-ylamino)-5,6,7,8-tetrahydro[1]benzothieno[2,3-d]pyrimidin-7-yl]carbonyl}amino)ethyl]carbamate] | 13
